In patent publication US10550111B2, “Pyrimidine urea compound containing isoxazolines and use thereof” (SHENYANG SINOCHEM AGROCHEMICALS R&D CO., LTD, priority 2014, dated 2020):

What was measured:
Type in all cases: in vivo
[1] = system: broad-leaf weeds and grass weeds; experiment: General screening of herbicidal activity in greenhouse; details: 1000 g a.i./hm^2;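 further: 0 means no visible effect and 100 means all weeds dead or not emerged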
In short: (§1)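 Visual growth inhibition rating (0–100%; 100 = weeds dead or not emerged) after track-sprayer application of compounds formulated as emulsifiable concentrates. Sprays given 24 h post-sowing (pre-emergence) or at 2–3-leaf (grasses) / 2–4-leaf (broad-leaves) stage, greenhouse-grown plants.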

[2] = system: Setaria glauca (L.) Beauv.; experiment: Bioassay of herbicidal activity in greenhouse (further screening)
In short: as §1

[3] = system: Echinochloa crus-galli (L.) Beauv.; experiment: as above
In short: as §1

[4] = system: Abutilon theophrasti Medic.; experiment: as above
In short: as §1

Zinnia elegans Jacq. = experiment: as above
In short: as §1

wheat = experiment: Crop safety study in greenhouse; details: 7.5-37.5 g a.i./hm^2; pre-emergence and post-emergence application
Text: (§2) Seeds of soybean, cotton, maize, wheat and rice were sown in nutrition soil in paper pot (9 cm diameter), covered with soil in 1 cm and grown in the greenhouse under good growth conditions (temperature, atmospheric humidity, water supply). The compounds of the present invention as emulsifiable concentrate, were applied in pre-emergence and post-emergence treatment by track sprayer (Engineer Research Ltd., pressure 1.95 kg/cm^2, volume 500 L/hm^2, track speed 1.48 km/h). Pre-emergence treatment was conducted after seeding 24 hours and post-emergence treatment was done when the respective weeds reached predetermined leaf stage (soybean and cotton at 2- to 4-leaf stage and maize, wheat and rice at 3-leaf stage), the state of growth of the respective crops were visually observed to determine the safety in accordance with the following evaluation standard.
(§3) Safety rating scale (%): 0 means no damage to crops; 100 means to kill crops completely.

rice = experiment: Crop safety study in greenhouse; details: 7.5-37.5 g a.i./hm^2; pre-emergence and post-emergence application
Text: as §2, §3

maize = experiment: Crop safety study in greenhouse; details: 7.5-37.5 g a.i./hm^2; pre-emergence and post-emergence application
Text: as §2, §3

`CC(C)C(=O)OCC1(C)CC(c2cc(-n3c(=O)cc(C(F)(F)F)n(C)c3=O)c(F)cc2Cl)=NO1` (stereo not shown) [Compound 46] was tested, and the “pre-emergence and post-emergence herbicidal activity against broad-leaf weeds and grass weeds” value [1] was “good”, the “Growth inhibition rate, Post-emergence treatment, Setaria glauca (L.) Beauv.” value ([2]; dose 7.5 g a.i./hm^2) was 45% and the “Growth inhibition rate, Post-emergence treatment, Setaria glauca (L.) Beauv.” value ([2]; dose 15 g a.i./hm^2) was 55%. The “Growth inhibition rate, Post-emergence treatment, Setaria glauca (L.) Beauv.” value ([2]; dose 37.5 g a.i./hm^2) was 55%, the “Growth inhibition rate, Post-emergence treatment, Setaria glauca (L.) Beauv.” value ([2]; dose 150 g a.i./hm^2) was 80% and the “Growth inhibition rate, Post-emergence treatment, Setaria glauca (L.) Beauv.” value ([2]; dose 600 g a.i./hm^2) was 100%. For the same compound, the “Growth inhibition rate, Pre-emergence treatment, Setaria glauca (L.) Beauv.” value ([2]; dose 7.5 g a.i./hm^2) was 75%, the “Growth inhibition rate, Pre-emergence treatment, Setaria glauca (L.) Beauv.” value ([2]; dose 15 g a.i./hm^2) was 60% and the “Growth inhibition rate, Pre-emergence treatment, Setaria glauca (L.) Beauv.” value ([2]; dose 37.5 g a.i./hm^2) was 95%. For the same compound, the “Growth inhibition rate, Pre-emergence treatment, Setaria glauca (L.) Beauv.” value ([2]; dose 150 g a.i./hm^2) was 100%, the “Growth inhibition rate, Pre-emergence treatment, Setaria glauca (L.) Beauv.” value ([2]; dose 600 g a.i./hm^2) was 100% and the “Growth inhibition rate, Post-emergence treatment, Echinochloa crus-galli (L.) Beauv.” value ([3]; dose 7.5 g a.i./hm^2) was 20%. The “Growth inhibition rate, Post-emergence treatment, Echinochloa crus-galli (L.) Beauv.” value ([3]; dose 15 g a.i./hm^2) was 25%, the “Growth inhibition rate, Post-emergence treatment, Echinochloa crus-galli (L.) Beauv.” value ([3]; dose 37.5 g a.i./hm^2) was 30% and the “Growth inhibition rate, Post-emergence treatment, Echinochloa crus-galli (L.) Beauv.” value ([3]; dose 150 g a.i./hm^2) was 75%. The “Growth inhibition rate, Post-emergence treatment, Echinochloa crus-galli (L.) Beauv.” value ([3]; dose 600 g a.i./hm^2) was 98%, the “Growth inhibition rate, Pre-emergence treatment, Echinochloa crus-galli (L.) Beauv.” value ([3]; dose 7.5 g a.i./hm^2) was 10% and the “Growth inhibition rate, Pre-emergence treatment, Echinochloa crus-galli (L.) Beauv.” value ([3]; dose 15 g a.i./hm^2) was 15%. For the same compound, the “Growth inhibition rate, Pre-emergence treatment, Echinochloa crus-galli (L.) Beauv.” value ([3]; dose 37.5 g a.i./hm^2) was 50%, the “Growth inhibition rate, Pre-emergence treatment, Echinochloa crus-galli (L.) Beauv.” value ([3]; dose 150 g a.i./hm^2) was 95% and the “Growth inhibition rate, Pre-emergence treatment, Echinochloa crus-galli (L.) Beauv.” value ([3]; dose 600 g a.i./hm^2) was 100%. The “Growth inhibition rate, Post-emergence treatment, Abutilon theophrasti Medic.” value ([4]; dose 7.5 g a.i./hm^2) was 98%, the “Growth inhibition rate, Post-emergence treatment, Abutilon theophrasti Medic.” value ([4]; dose 15 g a.i./hm^2) was 100% and the “Growth inhibition rate, Post-emergence treatment, Abutilon theophrasti Medic.” value ([4]; dose 37.5 g a.i./hm^2) was 100%. For the same compound, the “Growth inhibition rate, Post-emergence treatment, Abutilon theophrasti Medic.” value ([4]; dose 150 g a.i./hm^2) was 100%, the “Growth inhibition rate, Post-emergence treatment, Abutilon theophrasti Medic.” value ([4]; dose 600 g a.i./hm^2) was 100% and the “Growth inhibition rate, Pre-emergence treatment, Abutilon theophrasti Medic.” value ([4]; dose 7.5 g a.i./hm^2) was 50%. For the same compound, the “Growth inhibition rate, Pre-emergence treatment, Abutilon theophrasti Medic.” value ([4]; dose 15 g a.i./hm^2) was 100%, the “Growth inhibition rate, Pre-emergence treatment, Abutilon theophrasti Medic.” value ([4]; dose 37.5 g a.i./hm^2) was 100% and the “Growth inhibition rate, Pre-emergence treatment, Abutilon theophrasti Medic.” value ([4]; dose 150 g a.i./hm^2) was 100%. The “Growth inhibition rate, Pre-emergence treatment, Abutilon theophrasti Medic.” value ([4]; dose 600 g a.i./hm^2) was 100%, the “Growth inhibition rate, Post-emergence treatment, Zinnia elegans Jacq.” value (Zinnia elegans Jacq.; dose 7.5 g a.i./hm^2) was 98% and the “Growth inhibition rate, Post-emergence treatment, Zinnia elegans Jacq.” value (Zinnia elegans Jacq.; dose 15 g a.i./hm^2) was 98%. The “Growth inhibition rate, Post-emergence treatment, Zinnia elegans Jacq.” value (Zinnia elegans Jacq.; dose 37.5 g a.i./hm^2) was 100%, the “Growth inhibition rate, Post-emergence treatment, Zinnia elegans Jacq.” value (Zinnia elegans Jacq.; dose 150 g a.i./hm^2) was 100% and the “Growth inhibition rate, Post-emergence treatment, Zinnia elegans Jacq.” value (Zinnia elegans Jacq.; dose 600 g a.i./hm^2) was 100%. The “Growth inhibition rate, Pre-emergence treatment, Zinnia elegans Jacq.” value (Zinnia elegans Jacq.; dose 7.5 g a.i./hm^2) was 40%, the “Growth inhibition rate, Pre-emergence treatment, Zinnia elegans Jacq.” value (Zinnia elegans Jacq.; dose 15 g a.i./hm^2) was 45% and the “Growth inhibition rate, Pre-emergence treatment, Zinnia elegans Jacq.” value (Zinnia elegans Jacq.; dose 37.5 g a.i./hm^2) was 95%. The “Growth inhibition rate, Pre-emergence treatment, Zinnia elegans Jacq.” value (Zinnia elegans Jacq.; dose 150 g a.i./hm^2) was 100%, the “Growth inhibition rate, Pre-emergence treatment, Zinnia elegans Jacq.” value (Zinnia elegans Jacq.; dose 600 g a.i./hm^2) was 100% and the “Crop safety, wheat” value (wheat) was “good safety”. For the same compound, the “Crop safety, rice” value (rice) was “good safety” and the “Crop safety, maize” value (maize) was “good safety”.
`CC(=O)OCC1(C)CC(c2cc(-n3c(=O)cc(C(F)(F)F)n(C)c3=O)c(F)cc2Cl)=NO1` (stereo not shown) [Compound 43] was tested, and the “pre-emergence and post-emergence herbicidal activity against broad-leaf weeds and grass weeds” value [1] was “good”, the “Growth inhibition rate, Post-emergence treatment, Setaria glauca (L.) Beauv.” value ([2]; dose 7.5 g a.i./hm^2) was 70% and the “Growth inhibition rate, Post-emergence treatment, Setaria glauca (L.) Beauv.” value ([2]; dose 15 g a.i./hm^2) was 80%. The “Growth inhibition rate, Post-emergence treatment, Setaria glauca (L.) Beauv.” value ([2]; dose 37.5 g a.i./hm^2) was 25%, the “Growth inhibition rate, Post-emergence treatment, Setaria glauca (L.) Beauv.” value ([2]; dose 150 g a.i./hm^2) was 95% and the “Growth inhibition rate, Post-emergence treatment, Setaria glauca (L.) Beauv.” value ([2]; dose 600 g a.i./hm^2) was 100%. For the same compound, the “Growth inhibition rate, Pre-emergence treatment, Setaria glauca (L.) Beauv.” value ([2]; dose 7.5 g a.i./hm^2) was 20%, the “Growth inhibition rate, Pre-emergence treatment, Setaria glauca (L.) Beauv.” value ([2]; dose 15 g a.i./hm^2) was 35% and the “Growth inhibition rate, Pre-emergence treatment, Setaria glauca (L.) Beauv.” value ([2]; dose 37.5 g a.i./hm^2) was 90%. The “Growth inhibition rate, Pre-emergence treatment, Setaria glauca (L.) Beauv.” value ([2]; dose 150 g a.i./hm^2) was 98%, the “Growth inhibition rate, Pre-emergence treatment, Setaria glauca (L.) Beauv.” value ([2]; dose 600 g a.i./hm^2) was 100% and the “Growth inhibition rate, Post-emergence treatment, Echinochloa crus-galli (L.) Beauv.” value ([3]; dose 7.5 g a.i./hm^2) was 10%. The “Growth inhibition rate, Post-emergence treatment, Echinochloa crus-galli (L.) Beauv.” value ([3]; dose 15 g a.i./hm^2) was 20%, the “Growth inhibition rate, Post-emergence treatment, Echinochloa crus-galli (L.) Beauv.” value ([3]; dose 37.5 g a.i./hm^2) was 10% and the “Growth inhibition rate, Post-emergence treatment, Echinochloa crus-galli (L.) Beauv.” value ([3]; dose 150 g a.i./hm^2) was 90%. For the same compound, the “Growth inhibition rate, Post-emergence treatment, Echinochloa crus-galli (L.) Beauv.” value ([3]; dose 600 g a.i./hm^2) was 100%, the “Growth inhibition rate, Pre-emergence treatment, Echinochloa crus-galli (L.) Beauv.” value ([3]; dose 7.5 g a.i./hm^2) was 10% and the “Growth inhibition rate, Pre-emergence treatment, Echinochloa crus-galli (L.) Beauv.” value ([3]; dose 15 g a.i./hm^2) was 60%. For the same compound, the “Growth inhibition rate, Pre-emergence treatment, Echinochloa crus-galli (L.) Beauv.” value ([3]; dose 37.5 g a.i./hm^2) was 90%, the “Growth inhibition rate, Pre-emergence treatment, Echinochloa crus-galli (L.) Beauv.” value ([3]; dose 150 g a.i./hm^2) was 95% and the “Growth inhibition rate, Pre-emergence treatment, Echinochloa crus-galli (L.) Beauv.” value ([3]; dose 600 g a.i./hm^2) was 100%. For the same compound, the “Growth inhibition rate, Post-emergence treatment, Abutilon theophrasti Medic.” value ([4]; dose 7.5 g a.i./hm^2) was 100%, the “Growth inhibition rate, Post-emergence treatment, Abutilon theophrasti Medic.” value ([4]; dose 15 g a.i./hm^2) was 100% and the “Growth inhibition rate, Post-emergence treatment, Abutilon theophrasti Medic.” value ([4]; dose 37.5 g a.i./hm^2) was 100%. For the same compound, the “Growth inhibition rate, Post-emergence treatment, Abutilon theophrasti Medic.” value ([4]; dose 150 g a.i./hm^2) was 100%, the “Growth inhibition rate, Post-emergence treatment, Abutilon theophrasti Medic.” value ([4]; dose 600 g a.i./hm^2) was 100% and the “Growth inhibition rate, Pre-emergence treatment, Abutilon theophrasti Medic.” value ([4]; dose 7.5 g a.i./hm^2) was 100%. The “Growth inhibition rate, Pre-emergence treatment, Abutilon theophrasti Medic.” value ([4]; dose 15 g a.i./hm^2) was 100%, the “Growth inhibition rate, Pre-emergence treatment, Abutilon theophrasti Medic.” value ([4]; dose 37.5 g a.i./hm^2) was 100% and the “Growth inhibition rate, Pre-emergence treatment, Abutilon theophrasti Medic.” value ([4]; dose 150 g a.i./hm^2) was 100%. For the same compound, the “Growth inhibition rate, Pre-emergence treatment, Abutilon theophrasti Medic.” value ([4]; dose 600 g a.i./hm^2) was 100%, the “Growth inhibition rate, Post-emergence treatment, Zinnia elegans Jacq.” value (Zinnia elegans Jacq.; dose 7.5 g a.i./hm^2) was 98% and the “Growth inhibition rate, Post-emergence treatment, Zinnia elegans Jacq.” value (Zinnia elegans Jacq.; dose 15 g a.i./hm^2) was 100%. The “Growth inhibition rate, Post-emergence treatment, Zinnia elegans Jacq.” value (Zinnia elegans Jacq.; dose 37.5 g a.i./hm^2) was 100%, the “Growth inhibition rate, Post-emergence treatment, Zinnia elegans Jacq.” value (Zinnia elegans Jacq.; dose 150 g a.i./hm^2) was 100% and the “Growth inhibition rate, Post-emergence treatment, Zinnia elegans Jacq.” value (Zinnia elegans Jacq.; dose 600 g a.i./hm^2) was 100%. For the same compound, the “Growth inhibition rate, Pre-emergence treatment, Zinnia elegans Jacq.” value (Zinnia elegans Jacq.; dose 7.5 g a.i./hm^2) was 0%, the “Growth inhibition rate, Pre-emergence treatment, Zinnia elegans Jacq.” value (Zinnia elegans Jacq.; dose 15 g a.i./hm^2) was 25% and the “Growth inhibition rate, Pre-emergence treatment, Zinnia elegans Jacq.” value (Zinnia elegans Jacq.; dose 37.5 g a.i./hm^2) was 50%. For the same compound, the “Growth inhibition rate, Pre-emergence treatment, Zinnia elegans Jacq.” value (Zinnia elegans Jacq.; dose 150 g a.i./hm^2) was 100%, the “Growth inhibition rate, Pre-emergence treatment, Zinnia elegans Jacq.” value (Zinnia elegans Jacq.; dose 600 g a.i./hm^2) was 100% and the “Crop safety, wheat” value (wheat) was “good safety”. For the same compound, the “Crop safety, rice” value (rice) was “good safety” and the “Crop safety, maize” value (maize) was “good safety”.
